Experimental data from patent US8436039B2, “Inhibitors of the ATB(0,+) transporter and uses thereof” (Georgia Health Sciences University Research Institute, Inc., priority 2008, dated 2013).

Experiments:
[1] = mice; 2 mg/ml in drinking water; cited from earlier work
[2] = test system: MCF7, T-47D and ZR-75.1 cells; test: Colony formation assay, malignant ATB^0,+-positive mammary epithelial cell lines; format: cell-based; conditions: Homo sapiens, 288 h, 2.5 mM, 12 days, regular culture medium
Experimental: (§1) The colony formation assay was performed as described previously (Thangaraju et al., 2006, Cancer Res. 66, 11560-11564). Mammary epithelial cells were seeded on to 6-well plates (10000 cells per well) in DMEM. After 24 hours, cells were exposed to varying concentrations of α-methyl-DL-tryptophan or 1-methyl-DL-tryptophan for 2 weeks, changing medium every 2 days. Cells were washed with PBS and fixed in 100% (v/v) methanol for 30 min followed by staining with KaryoMAX Giemsa stain for one hour. The wells were washed with water and dried overnight at room temperature. Finally, the dye in the wells was dissolved with 1% SDS in 0.2 M NaOH for one hour, and the attenuance of the released dye was measured at 630 nm.
(§2) The present studies have identified α-methyl-DL-tryptophan as a blocker of ATB^0,+ and also have shown that the compound is able to block the transport of amino acids via ATB^0,+ under conditions that stimulate those in vivo in terms of amino acid concentrations. […] For this, we treated the human mammary epithelial cell lines with 2.5 mM α-methyl-DL-tryptophan in the presence of regular culture medium for 12 days in clonogenic assay and quantified the colony formation for each cell line in the presence and absence of α-methyl-DL-tryptophan (FIG. 8). […]

[3] = test system: HMEC, HBL100 and MCF10A cells; test: Colony formation assay, non-malignant ATB^0,+-negative mammary epithelial cell lines; format: cell-based, human; conditions: 2.5 mM, 12 days
Experimental: as §1, §2

[4] = test system: MDA-MB231, MDA-MB361 and MDA-MB453 cell lines; test: Colony formation assay, malignant ATB^0,+-negative mammary epithelial cell lines; format: cell-based, human; conditions: 2.5 mM, 12 days, no or very low ATB^0,+
Experimental: as §1, §2

MCF7 cells = test: Cell cycle analysis (FACS, propidium iodide) in MCF7 cells; format: cell-based, human; conditions: 2.5 mM; 24 hours
Experimental: (§3) MCF10A (an ATB^0,+-negative non-malignant cell line), MCF7 (an ATB^0,+-positive malignant cell line) and MDA-MB453 (an ATB^0,+-negative malignant cell line) cells were cultured in 6-well plates in a regular culture medium in the presence or absence of α-methyl-DL-tryptophan (2.5 mM) for 24, 48 and 72 hours. Cells were fixed in 50% (v/v) ethanol, treated with 0.1% sodium citrate, 1 mg/ml RNase A and 50 μg/ml propidium iodide, and subjected to FACS (Becton Dickinson FACSCalibur™) analysis. The amount of DNA in these cells, detected as chromosome content by propidium iodide binding, was used to identify cells in various stages of cell cycle: G1/G0, 2N; S, 2-4 N; G2/M, 4N (where N is the normal chromosome content).
(§4) Since treatment with α-methyl-DL-tryptophan suppressed colony formation in malignant cell lines in an ATB^0,+-dependent manner, we investigated the influence of this treatment on cell cycle to determine which stage of the cycle is affected. We used three different cell lines in this experiment: MCF10A (non-malignant and ATB^0,+-negative), MCF7 (malignant and ATB^0,+-positive) and MDA-MB453 (malignant and ATB^0,+-negative) (FIG. 9). […] In contrast, the treatment affected the cell cycle progression in the ATB^0,+-positive MCF7 cell line. The cells were arrested at G1/G0 stage to a significant extent when treated with α-methyl-DL-tryptophan. […]

[5] = test system: MCF10A and MDA-MB453 cell lines; test: Cell cycle analysis (FACS, propidium iodide) in ATB^0,+-negative cell lines; format: cell-based, human; conditions: 2.5 mM; 24, 48 and 72 hours
Experimental: as §3, §4

Cn1cc(C[C@@H](N)C(=O)O)c2ccccc21 [1-methyl-D-tryptophan]
plasma levels [1]: 35 to 40 µM

CC(N)(Cc1c[nH]c2ccccc12)C(=O)O (racemic) [α-methyl-DL-tryptophan]
inhibition at 2500 µM [2]: 60 to 75%
effect on ability to form colonies [3]: no effect
effect on colony formation [4]: little or no effect
percentage of MCF7 cells in G1/G0-phase (MCF7 cells): 82±1 percentage
percentage of MCF7 cells in S-phase (MCF7 cells): 3±1 percentage
effect on cell cycle [5]: no effect on cell cycle
